In publication PMC11859928, “Design, Synthesis, and Antiproliferative Activity of Novel Indole/1,2,4-Triazole Hybrids as Tubulin Polymerization Inhibitors” (Pharmaceuticals, 2025):
Like-named read-outs stand apart in the source and are kept apart here.

Legend:
Colon cancer subpanel = assay: NCI five-dose assay, subpanel mean; assay type: cell-based, human; details: for GI50 Selectivity Ratio (MID a/MID b): Colon cancer subpanel; for GI50: Homo sapiens, read-out: GI50 Subpanel MID b
Leukemia subpanel = assay: NCI five-dose assay, subpanel mean; assay type: cell-based, human; details: for GI50: Homo sapiens, read-out: GI50 Subpanel MID b; for GI50 Selectivity Ratio (MID a/MID b): Leukemia subpanel
A498 = assay: NCI one-dose assay; assay type: cell-based, human; details: Homo sapiens, A498, A498, Renal cancer, read-out: Cell growth inhibition %
HOP-62 = assay: NCI one-dose assay; assay type: cell-based; details: Homo sapiens, HOP-62, Non-small cell lung cancer, read-out: Cell growth inhibition %
MDA-MB-435 = assay: NCI one-dose assay; assay type: cell-based; details: Homo sapiens, MDA-MB-435, Melanoma, read-out: Cell growth inhibition %
HCT-116 = assay: NCI one-dose assay; assay type: cell-based; details: Homo sapiens, HCT-116, Colon cancer, read-out: Cell growth inhibition %
COLO 205 = assay: NCI one-dose assay; assay type: cell-based; details: Homo sapiens, COLO 205, Colon cancer, read-out: Cell growth inhibition %
MCF7 = assay: NCI one-dose assay; assay type: cell-based; details: Homo sapiens, MCF7, Breast cancer, read-out: Cell growth inhibition %
PC-3 = assay: NCI one-dose assay; assay type: cell-based; details: Homo sapiens, PC-3, Prostate cancer, read-out: Cell growth inhibition %
NCI-H226 = assay: NCI one-dose assay; assay type: cell-based; details: Homo sapiens, NCI-H226, Non-small cell lung cancer, read-out: Cell growth inhibition %
LOX IMVI = assay: NCI one-dose assay; assay type: cell-based; details: Homo sapiens, Melanoma, read-out: Cell growth inhibition %
ACHN = assay: NCI one-dose assay; assay type: cell-based; details: Homo sapiens, Renal cancer, read-out: Cell growth inhibition %
BT-549 = assay: NCI one-dose assay; assay type: cell-based; details: Homo sapiens, BT-549, Breast cancer, read-out: Cell growth inhibition %
MDA-MB-468 = assay: NCI one-dose assay; assay type: cell-based; details: Homo sapiens, MDA-MB-468, Breast cancer, read-out: Cell growth inhibition %
SNB-75 = assay: NCI one-dose assay; assay type: cell-based; details: Homo sapiens, SNB-75, CNS cancer, read-out: Cell growth inhibition %
UACC-62 = assay: NCI one-dose assay; assay type: cell-based; details: Homo sapiens, UACC-62, Melanoma, read-out: Cell growth inhibition %
KM12 = assay: NCI one-dose assay; assay type: cell-based; details: Homo sapiens, KM12, Colon cancer, read-out: Cell growth inhibition %
SK-MEL-2 = assay: NCI one-dose assay; assay type: cell-based; details: Homo sapiens, SK-MEL-2, Melanoma, read-out: Cell growth inhibition %
RPMI-8226 = assay: NCI one-dose assay; assay type: cell-based; details: Homo sapiens, RPMI-8226, Leukemia, read-out: Cell growth inhibition %
NCI-H322M = assay: NCI one-dose assay; assay type: cell-based; details: Homo sapiens, Non-small cell lung cancer, read-out: Cell growth inhibition %
SF-295 = assay: NCI one-dose assay; assay type: cell-based; details: Homo sapiens, SF-295, CNS cancer, read-out: Cell growth inhibition %
CCRF-CEM = assay: NCI one-dose assay; assay type: cell-based; details: Homo sapiens, Leukemia, read-out: Cell growth inhibition %
MOLT-4 = assay: NCI one-dose assay; assay type: cell-based; details: Homo sapiens, MOLT-4, Leukemia, read-out: Cell growth inhibition %
HCT-15 = assay: NCI one-dose assay; assay type: cell-based; details: Homo sapiens, HCT-15, Colon cancer, read-out: Cell growth inhibition %
CAKI-1 [1] = assay: NCI one-dose assay; assay type: cell-based; details: Homo sapiens, CAKI-1, Renal cancer, read-out: Cell growth inhibition %
M14 = assay: NCI five-dose assay; assay type: cell-based, human; details: for GI50 / CC50: Homo sapiens; for GI50: read-out: GI50 Conc. per Cell Lines; for CC50: read-out: LC50 (the source's name)
OVCAR-5 = assay: NCI five-dose assay; assay type: cell-based, human; details: for LC50 / GI50: Homo sapiens; for GI50: read-out: GI50 Conc. per Cell Lines
[2] = tested on: panel of 60 human tumor cell lines; assay: NCI five-dose assay, full panel; assay type: cell-based
NCI 60 cell lines = assay: NCI one-dose assay, full panel; assay type: cell-based, human; details: Homo sapiens, 60 cell, read-out: cell growth inhibition percentage, range
Method: The National Cancer Institute (NCI), Bethesda, USA, selected the final compounds 6a–j and 7a–j for in vitro anticancer screening. An initial in vitro single-dose anticancer experiment was performed with the entire NCI 60 cell lines derived from nine tumor subpanel cancer cell lines. The results for each compound were illustrated as a mean graph showing the percentage growth of treated cells compared to untreated control cells (see Supplementary Materials).
The NCI anticancer screening process has been thoroughly detailed. The Drug Evaluation Branch of the National Cancer Institute in Bethesda, […], USA, established the procedure and conducted the anticancer assay on 60 human tumor cell lines from nine neoplastic cancers.

CAKI-1 [3] = assay: NCI five-dose assay; assay type: cell-based, human; details: for LC50 / GI50: Homo sapiens; for GI50: read-out: GI50 Conc. per Cell Lines
T-47D = assay: NCI five-dose assay; assay type: cell-based, human; details: for LC50 (concentration killing 50% of cells) / GI50: Homo sapiens, T47D; for GI50: read-out: GI50 Conc. per Cell Lines
[4] = average sensitivity of all cell lines, read-out: GI50 MID a
[5] = most of the tested cell lines across nine subpanels, read-out: GI50 values, range across nine subpanels
[6] = average sensitivity of all cell lines of the Colon cancer subpanel
[7] = average sensitivity of all cell lines of the Leukemia subpanel

## O/N=C(\CSc1nnc(-c2c[nH]c3ccccc23)n1-c1ccccc1)c1ccc(Cl)cc1 [Compound 7j, (Z)-2-((5-(1H-Indol-3-yl)-4-phenyl-4H-1,2,4-triazol-3-yl)thio)-1-(4-chlorophenyl) Ethanone Oxime]
Colon cancer subpanel
  GI50 Selectivity Ratio (MID a/MID b): 0.978
Colon cancer subpanel; Colon cancer, average sensitivity of all cell lines of the subpanel
  GI50: 3.73 µM
Leukemia subpanel; Leukemia, average sensitivity of all cell lines of the subpanel
  GI50: 2.8 µM
Leukemia subpanel
  GI50 Selectivity Ratio (MID a/MID b): 1.30
A498
  inhibition at 10 µM: 16.3%
HOP-62
  inhibition at 10 µM: 164%
MDA-MB-435
  inhibition at 10 µM: 200%
HCT-116
  inhibition at 10 µM: 99.3%
COLO 205
  inhibition at 10 µM: 89.8%
MCF7
  inhibition at 10 µM: 96.7%
PC-3
  inhibition at 10 µM: 138%
NCI-H226
  inhibition at 10 µM: 85.7%
LOX IMVI
  inhibition at 10 µM: 189%
ACHN
  inhibition at 10 µM: 96.7%
BT-549
  inhibition at 10 µM: 167%
MDA-MB-468
  inhibition at 10 µM: 185%
SNB-75
  inhibition at 10 µM: 52%
UACC-62
  inhibition at 10 µM: 143%
KM12
  inhibition at 10 µM: 78.6%
SK-MEL-2
  inhibition at 10 µM: 79.9%
RPMI-8226
  inhibition at 10 µM: 113%
NCI-H322M
  inhibition at 10 µM: 149%
SF-295
  inhibition at 10 µM: 85.9%
CCRF-CEM
  inhibition at 10 µM: 105%
MOLT-4
  inhibition at 10 µM: 107%
HCT-15
  inhibition at 10 µM: 148%
CAKI-1 [1]
  inhibition at 10 µM: 111%
M14; M14, five dose levels
  GI50: 3.15 µM
  CC50: > 100 µM
  TGI Conc. per Cell Lines: 14.1 µM
OVCAR-5; OVCAR-5, five dose levels
  LC50: > 100 µM
  GI50: 3.37 µM
  TGI Conc. per Cell Lines: 11.4 µM
[2]; [4]
  GI50: 3.65 µM
[2]; [5]
  GI50: 2.45 to 5.23 µM
NCI 60 cell lines; six cell lines with moderate activity
  inhibition at 10 µM: 52 to 66%
NCI 60 cell lines; twenty-eight cell lines with total cell death
  inhibition at 10 µM: 102 to 200%
NCI 60 cell lines; twenty-four cell lines
  inhibition at 10 µM: 69.5 to 99.3%
CAKI-1 [3]; CAKI-1, five dose levels
  TGI Conc. per Cell Lines: 12.4 µM
  LC50: > 100 µM
  GI50: 2.93 µM
T-47D; five dose levels
  LC50 (concentration killing 50% of cells): > 100 µM
  GI50: 3.6 µM
  TGI Conc. per Cell Lines: 31.4 µM

## Cc1ccc(/C(CSc2nnc(-c3c[nH]c4ccccc34)n2-c2ccccc2)=N/O)cc1 [Compound 7h, (Z)-2-((5-(1H-Indol-3-yl)-4-phenyl-4H-1,2,4-triazol-3-yl)thio)-1-(p-tolyl)ethanone Oxime]
Colon cancer subpanel
  GI50 Selectivity Ratio (MID a/MID b): 0.959
Colon cancer subpanel; [6]
  GI50: 3.13 µM
Leukemia subpanel; [7]
  GI50: 2.03 µM
Leukemia subpanel
  GI50 Selectivity Ratio (MID a/MID b): 1.47
A498
  inhibition at 10 µM: 8.13%
HOP-62
  inhibition at 10 µM: 157%
MDA-MB-435
  inhibition at 10 µM: 200%
HCT-116
  inhibition at 10 µM: 97.4%
COLO 205
  inhibition at 10 µM: 87.6%
MCF7
  inhibition at 10 µM: 155%
PC-3
  inhibition at 10 µM: 147%
NCI-H226
  inhibition at 10 µM: 141%
LOX IMVI
  inhibition at 10 µM: 188%
ACHN
  inhibition at 10 µM: 162%
BT-549
  inhibition at 10 µM: 176%
MDA-MB-468
  inhibition at 10 µM: 189%
SNB-75
  inhibition at 10 µM: 144%
UACC-62
  inhibition at 10 µM: 153%
KM12
  inhibition at 10 µM: 49.8%
SK-MEL-2
  inhibition at 10 µM: 37.3%
RPMI-8226
  inhibition at 10 µM: 119%
NCI-H322M
  inhibition at 10 µM: 142%
SF-295
  inhibition at 10 µM: 150%
CCRF-CEM
  inhibition at 10 µM: 135%
MOLT-4
  inhibition at 10 µM: 128%
HCT-15
  inhibition at 10 µM: 162%
CAKI-1 [1]
  inhibition at 10 µM: 127%
M14; M14, Melanoma
  GI50: 1.79 µM
  TGI Conc. per Cell Lines: 3.86 µM
OVCAR-5; OVCAR-5, Ovarian cancer, 48 h
  LC50: 5.73 µM
OVCAR-5; OVCAR-5, Ovarian cancer
  GI50: 1.69 µM
  TGI Conc. per Cell Lines: 3.11 µM
[2]; [4]
  GI50: 3 µM
[2]; [5]
  GI50: 1.85 to 5.76 µM
NCI 60 cell lines; sixteen cell lines
  inhibition at 10 µM: 72 to 98%
NCI 60 cell lines; thirty-six cell lines with complete cell death
  inhibition at 10 µM: 106 to 200%
CAKI-1 [3]; CAKI-1, Renal cancer
  TGI Conc. per Cell Lines: 3.06 µM
  GI50: 1.63 µM
CAKI-1 [3]; CAKI-1, Renal cancer, 48 h
  LC50: 5.74 µM
T-47D; Breast cancer
  TGI Conc. per Cell Lines: 4.75 µM
  GI50: 2.07 µM
T-47D; Breast cancer, 48 h
  LC50 (concentration killing 50% of cells): > 100 µM

## Cc1ccc(C(=O)CSc2nnc(-c3c[nH]c4ccccc34)n2-c2ccccc2)cc1 [Compound 6h, 2-((5-(1H-Indol-3-yl)-4-phenyl-4H-1,2,4-triazol-3-yl)thio)-1-(p-tolyl)ethenone]
Colon cancer subpanel
  GI50 Selectivity Ratio (MID a/MID b): 0.76
Colon cancer subpanel; [6]
  GI50: 25.4 µM
Leukemia subpanel; [7]
  GI50: 33.5 µM
Leukemia subpanel
  GI50 Selectivity Ratio (MID a/MID b): 0.58
A498
  inhibition at 10 µM: 14.2%
HOP-62
  inhibition at 10 µM: 92.2%
MDA-MB-435
  inhibition at 10 µM: 61.4%
HCT-116
  inhibition at 10 µM: 92.3%
COLO 205
  inhibition at 10 µM: 25%
MCF7
  inhibition at 10 µM: 87.5%
PC-3
  inhibition at 10 µM: 57%
NCI-H226
  inhibition at 10 µM: 141%
LOX IMVI
  inhibition at 10 µM: 120%
ACHN
  inhibition at 10 µM: 79.6%
BT-549
  inhibition at 10 µM: 77.6%
MDA-MB-468
  inhibition at 10 µM: 52%
SNB-75
  inhibition at 10 µM: 101%
UACC-62
  inhibition at 10 µM: 76.1%
KM12
  inhibition at 10 µM: 49%
SK-MEL-2
  inhibition at 10 µM: 15.3%
RPMI-8226
  inhibition at 10 µM: 41.1%
NCI-H322M
  inhibition at 10 µM: 25.1%
SF-295
  inhibition at 10 µM: 88.9%
CCRF-CEM
  inhibition at 10 µM: 39.2%
MOLT-4
  inhibition at 10 µM: 38.3%
HCT-15
  inhibition at 10 µM: 56.2%
CAKI-1 [1]
  inhibition at 10 µM: 87.6%
M14; M14, Melanoma, 48 h
  CC50: > 100 µM
M14; M14, Melanoma
  GI50: 32.1 µM
  TGI Conc. per Cell Lines: >100 µM
OVCAR-5; OVCAR-5, Ovarian cancer, 48 h
  LC50: 71.5 µM
OVCAR-5; OVCAR-5, Ovarian cancer
  GI50: 19.4 µM
  TGI Conc. per Cell Lines: 37.20 µM
[2]; [4]
  GI50: 19.3 µM
[2]; [5]
  GI50: 8.42 to 33.5 µM
NCI 60 cell lines; ten cancer cell lines with complete cell death
  inhibition at 10 µM: 101 to 141%
NCI 60 cell lines; twenty-five cell lines
  inhibition at 10 µM: 67 to 99%
CAKI-1 [3]; CAKI-1, Renal cancer
  TGI Conc. per Cell Lines: 29.80 µM
  GI50: 14.9 µM
CAKI-1 [3]; CAKI-1, Renal cancer, 48 h
  LC50: 59.4 µM
T-47D; Breast cancer
  TGI Conc. per Cell Lines: ˃100 µM
  GI50: 24.9 µM
T-47D; Breast cancer, 48 h
  LC50 (concentration killing 50% of cells): > 100 µM
